Data as given in patent US20170362283A1, “NISIN-BASED COMPOUNDS AND USE THEREOF IN THE TREATMENT OF BACTERIAL INFECTIONS” (UNIVERSITEIT UTRECHT HOLDING B.V., priority 2015, published 2017).

Key:
erythrocytes = assay: Hemolysis assay; conditions: human erythrocytes, 1 h, at 32 μg/mL
Description: Human whole blood was centrifuged at 600×g for 15 min and levels of plasma and hematocrit were marked on the tube. Plasma was removed and the erythrocytes washed 3× with PBS (centrifuging at 600×g for 15 mins). After discarding the supernatant, the packed cells were stored on ice. 100 μL of the peptides (128 μg/mL in PBS, 2% DMSO) as well as a control solution comprised of 2% DMSO in PBS were added to the top row of a polypropylene, round-bottom 96 well plate and 50 μL of PBS to the rest of the wells. The peptides and the DMSO control solutions were then diluted serially down the rows. 200 μL of the packed cells were added to PBS (10 mL) and 50 μL of this suspension was added to each well. A column with DI water containing 0.1% Triton X-100 was used as the 100% lysis control, and the column containing the serially-diluted PBS (1.0% DMSO) control served as the 0% lysis reference. The cells were incubated at 37° C. for 1 h. After incubation the plates were centrifuged (800×g, 5 min) and 25 μL of the supernatant was added to 100 μL DI water in a flat-bottom plate (polystyrene). The absorption at 414 nm was recorded to measure the amount of free hemoglobin.

E. faecium E1133 = assay: BioScreen growth assay for E. faecium E1133; type: cell-based; conditions: 5 μM
Description: A BioScreen C instrument (Oy Growth Curves AB, Helsinki, Finland) was used to monitor effects of the compounds (6), (10), and (12) and the effect of compound (24) with R1-group (e), or Comparative compound B (nisin) on E. faecium growth (each compound administered at a fixed concentration 5 μM). E. faecium strains were inoculated at an initial OD660 of 0.05 into 300 μl TSB containing 1% DMSO and 1% glucose or into the same medium containing the antibiotic compounds at a final concentration of 5 μM. […]
The E. faecium strains used in these experiments are E. faecium E745 (vancomycin-ampicillin resistant hospital outbreak strain), E. faecium E980 (vancomycin-ampicillin susceptible human commensal isolate), E. Faecium E1133 (vancomycin-ampicillin resistant hospital outbreak strain), and E. faecium E1162 (vancomycin-susceptible ampicillin-resistant clinical isolate). The BioScreen growth assays for each strain was determined for the compounds (6), (10), (12) and also for compound (24) with R1-group (e) as well as nisin (Comparative compound B) and compared to non-treated strains, the results being shown in the Tables 9 to 12 below.

nisin [Compound B]
hemolysis (erythrocytes): negligible hemolysis | OD600 (E. faecium E1133; time 0 h): 0.016 | OD600 (E. faecium E1133; time 4 h): 0.009667 | OD600 (E. faecium E1133; time 8 h): 0.009333 | OD600 (E. faecium E1133; time 12 h): 0.009333 | OD600 (E. faecium E1133; time 16 h): 0.008667
